Reference: the NIST ThermoML archive (doi:10.1016/j.fluid.2011.08.011)
Several values for one entry are separate records, joined by “and”; a condition that tells them apart may be missing. Identical values can stand only once. ± gives the expanded uncertainty stated by the source.

Columns and labels:
[1] = molar heat capacity at constant pressure; conditions: 101.33 kPa, Liquid, Small sample (50 mg) DSC
[2] = Molar enthalpy of transition or fusion; conditions: Crystal; DSC
[3] = Liquid, Closed cell (Static) method
[4] = Solid-liquid equilibrium temperature; conditions: 101.3 kPa; Crystal; DTA

CC(C)(C)[O-].CC(C)(C)[O-].CC(C)(C)[O-].CC(C)(C)[O-].[Hf+4] [hafnium(IV) 2-methylpropan-2-olate]
Conditions	molar heat capacity at constant pressure	vapor or sublimation pressure
[1], 293.83 K	596.3 ± 15 J/K/mol and 598.5 ± 15 J/K/mol	–
[1], 298.94 K	598.9 ± 15 J/K/mol and 598.2 ± 15 J/K/mol	–
[1], 304.04 K	601.3 ± 15 J/K/mol and 601.8 ± 15 J/K/mol	–
[1], 309.15 K	604.8 ± 15 J/K/mol and 600.7 ± 15 J/K/mol	–
[1], 314.25 K	604.8 ± 15 J/K/mol and 602.9 ± 15 J/K/mol	–
[1], 319.35 K	612.6 ± 15 J/K/mol and 614.6 ± 15 J/K/mol	–
[1], 324.46 K	614.2 ± 15 J/K/mol and 613.8 ± 15 J/K/mol	–
[1], 329.56 K	616.6 ± 15 J/K/mol and 621.7 ± 15 J/K/mol	–
[1], 334.66 K	626.3 ± 15 J/K/mol and 625.9 ± 15 J/K/mol	–
[1], 339.77 K	631.5 ± 16 J/K/mol and 628.5 ± 15 J/K/mol	–
[1], 344.88 K	635.3 ± 16 J/K/mol and 638.1 ± 16 J/K/mol	–
[1], 349.98 K	635.5 ± 16 J/K/mol and 635.9 ± 16 J/K/mol	–
[3], 280.65 K	–	0.00169 ± 0.00012 kPa and 0.00172 ± 0.00012 kPa and 0.00174 ± 0.00012 kPa
[3], 283.15 K	–	0.00214 ± 0.00013 kPa and 0.00217 ± 0.00013 kPa and 0.00219 ± 0.00013 kPa
[3], 285.65 K	–	0.00279 ± 0.00015 kPa and 0.00282 ± 0.00015 kPa and 0.00284 ± 0.00015 kPa
[3], 288.15 K	–	0.00362 ± 0.00017 kPa and 0.00364 ± 0.00017 kPa and 0.00361 ± 0.00017 kPa
[3], 290.65 K	–	0.00443 ± 0.0002 kPa and 0.00442 ± 0.0002 kPa and 0.00444 ± 0.0002 kPa
[3], 293.15 K	–	0.00563 ± 0.00024 kPa and 0.00565 ± 0.00024 kPa and 0.00564 ± 0.00024 kPa
[3], 295.65 K	–	0.00722 ± 0.0003 kPa and 0.0072 ± 0.0003 kPa
[3], 298.15 K	–	0.00874 ± 0.00036 kPa and 0.00873 ± 0.00036 kPa
[3], 300.65 K	–	0.01111 ± 0.00045 kPa and 0.01107 ± 0.00045 kPa and 0.01104 ± 0.00044 kPa
[3], 303.15 K	–	0.01348 ± 0.00052 kPa and 0.01346 ± 0.00052 kPa
[3], 305.67 K	–	0.01669 ± 0.00057 kPa and 0.01664 ± 0.00057 kPa and 0.0166 ± 0.00057 kPa
[3], 308.17 K	–	0.02071 ± 0.00063 kPa and 0.02061 ± 0.00063 kPa and 0.02059 ± 0.00063 kPa

Conditions	Molar enthalpy of transition or fusion [kJ/mol]	Solid-liquid equilibrium temperature
[2]	32.3 ± 2.7	–
[4]	–	271.9 ± 0.4 K and 271.8 ± 0.4 K and 271.7 ± 0.4 K
